In US20240400722A1, “Chemically Inducible Heterodimerizing System and A Method For Generation Thereof” (Miltenyi Biotec B.V. & Co. KG, priority 2023, published 2024):
“Also recorded” adds a separate entry of the source.

Assays:
[1] = test system: acVHH-V104D+acVHH-M1; experiment: Yeast display, small molecule-triggered heterodimerization acVHH-V104D + acVHH-M1; type: binding, llama; settings: 500 nM soluble acVHH-V104D ± 10 μM compound
Description: (§1) Expression of the acVHH variants on yeast was induced by culturing the cells in SG-CAA medium (20 g/L galactose, 2 g/L glucose, 6.7 g/L yeast nitrogen base, 5 g/L bacto casamino acids, 10.2 g/L Na2HPO4*7 H2O, 8.56 g/L NaH2PO4*H2O) overnight at 20° C. and 180 rpm. Detection of full-length proteins on the surface of the cells was carried out by staining the cells with anti-c-myc AlexaFluor 488 (9E10, Thermo Fisher). […] After a washing step with PBSA, they were stained with an anti-HA-Alexa Fluor 488 (BioLegend) to gate for displaying yeast cells and the geometric mean fluorescence intensity (gMFI) of binding to acVHH-V104D, detected by co-staining with a Penta-His-Alexa Fluor 647 (Qiagen) (recognizing the His-tag on acVHH-V104D) was measured.
(§2) 56 clones of the library were sequenced as explained in Example 2. […] Their binding and affinity to soluble acVHH-V104D as well as full length display was assessed with yeast surface display as described in Example 2.
(§3) EC50 values were calculated like the KD values by fitting the gMFI binding values to a 1:1 binding interaction model (Zajc et al., Methods Mol Biology. 2022; 2491:155-173).

[2] = test system: acVHH-V104D+acVHH-M2; type: binding, llama; settings: 500 nM soluble acVHH-V104D ± 10 μM compound
Description: as §1

[3] = test system: V104D+dfM1-1; settings: 500 nM soluble acVHH-V104D ± 10 μM compound
Description: as §1, §2, §3

[4] = test system: V104D+dfM1-2; settings: 500 nM soluble acVHH-V104D ± 10 μM compound
Description: as §1, §2, §3

[5] = test system: acVHH-V104D/dfM1-1; experiment: NanoBiT assay in Jurkat T cells, small molecule titration of acVHH-V104D/dfM1-1; type: cell-based, llama
Excerpt: (§4) The ac VHH variants were N-terminally fused to an extracellular globular domain used to assess expression, as well as a transmembrane domain, and C-terminally fused to a subunit of the split NanoLuc (NanoBiT® system), Promega. Thus, the resulting fusion protein consisted of an extracellular globular domain, followed by a transmembrane domain and intracellular ac VHH variants followed by a subunit of split NanoLuc luciferase.
(§5) The different chains built were as follows: the first polypeptide chain comprised truncated EGFR extracellular and transmembrane domain, followed by a 2×G4S linker and cither ac VHH-V104D or ac VHH-WT, followed by a linker (SEQ ID NO:31) and 11S NanoBiT® “Large BiT”, whereas the second polypeptide chain comprised truncated HER2 extracellular and transmembrane domain, followed by a linker (SEQ ID NO:32) and either ac VHH-V104D or ac VHH-WT or ac VHH-M1 or acVHH-M2 or dfM1-1 or dfM1-2, followed by a linker (SEQ ID NO:33) and 114 NanoBiT® “Small BiT”. […] The principle of the assay is as follows: upon binding of (i.e. dimerization) of the respective ac VHH variants, the fused NanoLuc luciferase subunits are brought into close proximity (the two subunits being fused to the two different polypeptide chains, respectively), thus resulting in a functional luciferase enzyme, whose activity can be measured. […]

[6] = test system: acVHH-V104D/dfM1-2; experiment: NanoBiT assay in Jurkat T cells, small molecule titration of acVHH-V104D/dfM1-2; type: cell-based, llama
Excerpt: as §4, §5

[7] = biological target: acVHH-V104D; settings: read-out: binding affinity (KD) of caffeine to acVHH-V104D; SPR multi-cycle kinetics, steady state analysis; acVHH-V104D immobilised on CM5 chip
Description: A stock of 30 μg/mL protein ac VHH-V104D was prepared in 10 mM NaAc buffer of pH 5 and covalently immobilised on a CM5 chip (GE Healthcare) with a 300 sec contact time and 10 μL/min flow rate to reach 4 600 response units (RU). […] KD values were obtained by steady state analysis.

[8] = test system: acVHH-V104D/acVHH-M1; settings: Jurkat T cells; compared with homodimeric switch acVHH-WT
Excerpt: as §4, §5

[9] = test system: CD19-positive Jurkat target cells; experiment: Lysis of target cells by split CAR-expressing primary human T cells with or without dimerizer; type: cell-based; settings: 50 μM caffeine or medium only, E:T 2:1, 4 h; split CARs with dfM1-1 or dfM1-2 and acVHH V104D
Description: 4 different architectures of split CARs consisting of two chains were investigated per acVHH variant where both the first and second chain of the split CAR is either monomeric or dimeric. A dimeric first CAR chain entails an FMC63 scFv followed by a linker followed by a Flag tag followed by a CD8a hinge and transmembrane domain followed by a 4-1BB co-stimulatory domain followed by a linker followed by acVHH dfM1-1 or dfM1-2 (SEQ ID NO:34 where ac VHH is dfM1-1). The only difference for a monomeric first CAR chain is the mutation of the two cysteine residues in the CD8a hinge to serine residues (SEQ ID NO:35). A dimeric second chain entails a DAP10 extracellular domain followed by a CD8 transmembrane domain followed by 2 amino acids followed by a 4-1BB co-stimulatory domain followed by a linker followed by ac VHH V104D followed by a linker followed by CD3z signaling domain followed by a linker followed by m Cherry (SEQ ID NO:36). […]
After electroporation, the cells were incubated for 6 h at 37° C. […] The cells were co-cultured for 4 h at 37° C., then 150 μg/mL luciferin (Xenolight D-luciferin, Perkin Elmer) was added to each well and luminescence was measured after 20 min with an ENSPIRE Multimode plate reader (Perkin Elmer). Specific lysis was calculated according to the formula:

[10] = test system: Raji target cells; experiment: IFN-γ and IL-2 secretion (ELISA) of transduced split CAR T cells co-cultured with Raji target cells; type: cell-based, human; settings: medium, 0.1 μM or 100 μM caffeine, overnight, E:T 2:1
Description: The nucleotide sequence encoding the monomeric CAR chain 1 (SEQ ID NO:34) containing dfM1-1 was fused to the nucleotide sequence encoding the dimeric CAR chain 2 (SEQ ID NO:36) or to the nucleotide sequence encoding monomeric CAR chain 2 (SEQ ID NO:37) via a furin cleavage site and 2A sequence (SEQ ID NO:41) and cloned into a third generation lentiviral expression vector with puromycin resistence gene (pCDH, System Biosciences). This plasmid, along with second-generation viral packaging plasmids (psPAX2 and pMD2.G, Addgene plasmids #12260 and #12259), was co-transfected in Lenti-X 293T cells (Takara) using the PureFection Transfection Reagent (System Biosciences) according to instructions provided by the manufacturer. Supernatants were collected on day 2 and 3 following transfection and concentrated 100-fold using Lenti-X Concentrator (Takara) according to the manufacturer's instructions. Viral suspensions were resuspended in RPMI-1640 medium supplemented with 10% FCS and 1% penicillin-streptomycin and frozen at −80° C. […]
Supernatants of triplicate wells were pooled and stored at −80° C. IFN-γ and IL-2 secretion was quantified by ELISA using kits from Biolegend (ELISA MAX Deluxe Set Human IFN-γ and ELISA MAX Deluxe Set Human IL-2, respectively), according to the manufacturer's instructions.

[11] = cited from earlier work
[12] = increasing concentrations of theobromine
[13] = compared with homodimeric switch acVHH-WT

SMILES: Cn1c(=O)c2[nH]cnc2n(C)c1=O [theophylline]
- triggering of heterodimerization acVHH-V104D/acVHH-M1 [1]: can trigger; also recorded: can be triggered
- triggering of heterodimerization acVHH-V104D/acVHH-M2 [2]: can trigger
- triggering of heterodimerization acVHH-V104D/dfM1-1 [3]: can be triggered
- triggering of heterodimerization acVHH-V104D/dfM1-2 [4]: can be triggered

SMILES: Cn1cnc2c1c(=O)[nH]c(=O)n2C [theobromine]
- triggering of heterodimerization acVHH-V104D/acVHH-M1 [1]: can trigger
- triggering of heterodimerization acVHH-V104D/acVHH-M2 [2]: can trigger
- triggering of heterodimeric switch acVHH-V104D/dfM1-1 [5, 12]: can trigger
- triggering of heterodimeric switch acVHH-V104D/dfM1-2 [6, 12]: can trigger

SMILES: Cn1c(=O)[nH]c2ncn(C)c2c1=O [paraxanthine]
- triggering of heterodimerization acVHH-V104D/acVHH-M1 [1]: can trigger
- triggering of heterodimerization acVHH-V104D/acVHH-M2 [2]: can trigger

SMILES: Cn1c(=O)c2c(ncn2C)n(C)c1=O [caffeine]
- Kd [7]: 72.4 mM
- EC50 for caffeine, V104D+M1, NanoBiT [8]: increased
- EC50 for caffeine, V104D+dfM1-1, NanoBiT [5, 13]: increased
- EC50 for caffeine, V104D+dfM1-2, NanoBiT [6, 13]: increased
- lysis of CD19-positive Jurkat T cells by split CAR T cells [9]: caffeine-dependent cytotoxic activity
- IFN-γ and IL-2 secretion of split CAR T cells [10]: strong dependence
- plasma levels of caffeine ([11]; absence of coffee, tea and chocolate consumption for 21 days, detection limit of the method): < 0.5 µM
- maximum plasma caffeine levels ([11]; after drinking one cup of coffee): ~10 µM
- caffeine plasma levels ([11]; nonhabitual coffee drinkers after coffee abstinence for at least 16 hours): 1.9 ± 1.6 µmol/L
